The results in this text go back to ChEMBL document CHEMBL4673354, “N-(Methyloxycarbonyl)thiophene sulfonamides as high affinity AT2 receptor ligands” (Bioorg Med Chem, 2021).

Data set [1] is described as follows: Apparent permeability across apical to basolateral side and basolateral to apical side in human Caco-2 cells at 5 uM measured up to 60 mins by LC-MS/MS analysis. Type of data set: ADME, cell-based.
Data set [2] can be described thus: Oral bioavailability in rat. In kind it is ADME, organism-based. To be noted: in vivo.

Take `CCCCOC(=O)NS(=O)(=O)c1sc(CC(C)C)cc1-c1cccc(Cn2ccnc2)c1`: the Papp at 1 h, 5 µM in data set [1] stood at 3.4 ×10⁻⁶ cm/s. For the compound `COc1ccc2c(c1OCc1ccccc1)C[C@@H](C(=O)O)N(C(=O)C(c1ccccc1)c1ccccc1)C2` [OLODANRIGAN], in data set [1], the Papp at 1 h, 5 µM was 1.8 ×10⁻⁶ cm/s. In data set [2], `COc1ccc2c(c1OCc1ccccc1)CC(C(=O)O)N(C(=O)C(c1ccccc1)c1ccccc1)C2` (centres undefined) gave a bioavailability of 33%. For the compound `CCCCOC(=O)NS(=O)(=O)c1sc(CC(C)C)cc1-c1cccc(C(=O)Cn2cnc3cc(C)c(C)cc32)c1`, in data set [1], the Papp at 1 h, 5 µM was 0.4 ×10⁻⁶ cm/s.
